Data on four compounds can be found in ChEMBL document CHEMBL1201862, “PubChem BioAssay data set” (2004).

Calls of active or inactive are those of the source. Where only a bound is given, the exact number is not on record here.

As usually defined, the AC50 is the midpoint of the concentration-response curve, whichever way the signal moves. In general, EC50 refers to the midpoint of the concentration-response curve.

In one assay the target is Paired box protein Pax-8 (Homo sapiens, UniProt Q06710). The assay can be described thus: inhibitors of PAX8-driven TPO luciferase reporter, dose response, RMG-I cells, cherry-pick (AID 687027).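 Also: luciferase reporter driven by Pax8 target thyroperoxidase promoter measured by SteadyGlo luminescence.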 The format is functional, cell-based. On the technique in general: In a reporter assay the amount or activity of a reporter protein is the signal.
Sequence of Paired box protein Pax-8 (Q06710 whole entry): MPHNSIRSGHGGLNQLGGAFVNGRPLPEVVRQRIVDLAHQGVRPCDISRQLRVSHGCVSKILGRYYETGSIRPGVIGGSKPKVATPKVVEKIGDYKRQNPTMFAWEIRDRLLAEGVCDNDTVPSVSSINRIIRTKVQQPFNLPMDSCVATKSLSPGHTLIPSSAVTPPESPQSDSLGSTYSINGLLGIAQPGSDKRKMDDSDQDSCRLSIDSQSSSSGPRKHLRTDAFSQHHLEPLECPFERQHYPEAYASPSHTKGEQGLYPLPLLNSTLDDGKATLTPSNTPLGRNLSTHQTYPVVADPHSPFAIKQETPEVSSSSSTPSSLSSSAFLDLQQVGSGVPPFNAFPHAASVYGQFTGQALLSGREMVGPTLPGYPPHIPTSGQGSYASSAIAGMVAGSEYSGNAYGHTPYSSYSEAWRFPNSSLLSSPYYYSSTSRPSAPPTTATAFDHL
Assay [1] is described as follows: A2780 ovarian cancer cell cytotoxicity, dose response, cytotoxicity control, plate reader, dry powder samples (AID 743046). Type of assay: functional, cell-based.
In a further assay the target is T1, Protein RecA (Mycobacterium tuberculosis, UniProt P9WHJ3).
T1 sequence (P9WHJ3 whole entry): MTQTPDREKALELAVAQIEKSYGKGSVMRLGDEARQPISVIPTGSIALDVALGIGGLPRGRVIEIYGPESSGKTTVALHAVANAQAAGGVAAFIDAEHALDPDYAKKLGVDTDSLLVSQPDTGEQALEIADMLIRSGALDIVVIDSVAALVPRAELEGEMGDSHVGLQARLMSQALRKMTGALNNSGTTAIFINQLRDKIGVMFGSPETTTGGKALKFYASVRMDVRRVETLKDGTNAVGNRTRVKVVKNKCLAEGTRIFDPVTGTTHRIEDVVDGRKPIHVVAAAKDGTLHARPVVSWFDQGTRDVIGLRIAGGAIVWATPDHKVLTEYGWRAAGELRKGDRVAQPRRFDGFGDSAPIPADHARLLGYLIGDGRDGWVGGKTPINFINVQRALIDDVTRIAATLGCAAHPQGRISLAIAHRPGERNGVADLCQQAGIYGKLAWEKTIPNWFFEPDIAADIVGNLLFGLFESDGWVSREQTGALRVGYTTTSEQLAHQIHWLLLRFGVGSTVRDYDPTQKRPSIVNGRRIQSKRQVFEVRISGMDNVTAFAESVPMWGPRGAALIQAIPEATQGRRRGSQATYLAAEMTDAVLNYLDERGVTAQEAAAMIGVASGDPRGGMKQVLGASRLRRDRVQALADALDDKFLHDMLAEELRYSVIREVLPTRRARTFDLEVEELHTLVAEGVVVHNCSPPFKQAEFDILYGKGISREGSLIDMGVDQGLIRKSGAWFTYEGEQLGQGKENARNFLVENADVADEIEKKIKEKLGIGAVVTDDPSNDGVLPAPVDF
The assay can be described thus: Fluorescence Cell-Free Homogeneous Dose Retest to Identify Inhibitors of RecA-Intein Splicing Activity. [Related pubchem assays (depositor defined):AID2097, AID2223, AID489010, AID492950]. Type of assay: functional.

The target of assay [2] is T2, Polyadenylate-binding protein 1 (Homo sapiens, UniProt P11940). Description: PABP1 MLLE–PAM2 interaction inhibitors, dose response, miRNA deadenylation inhibitor project, biochemical, fluorescence polarization, Cy5-PAM2 peptide, secondary (AID 602260). The format is functional. The following applies: read-out: IC50_Mean. A general note: In fluorescence polarisation assays a small probe gives low polarisation when free and higher when bound to something large.
T2 sequence (P11940 whole entry): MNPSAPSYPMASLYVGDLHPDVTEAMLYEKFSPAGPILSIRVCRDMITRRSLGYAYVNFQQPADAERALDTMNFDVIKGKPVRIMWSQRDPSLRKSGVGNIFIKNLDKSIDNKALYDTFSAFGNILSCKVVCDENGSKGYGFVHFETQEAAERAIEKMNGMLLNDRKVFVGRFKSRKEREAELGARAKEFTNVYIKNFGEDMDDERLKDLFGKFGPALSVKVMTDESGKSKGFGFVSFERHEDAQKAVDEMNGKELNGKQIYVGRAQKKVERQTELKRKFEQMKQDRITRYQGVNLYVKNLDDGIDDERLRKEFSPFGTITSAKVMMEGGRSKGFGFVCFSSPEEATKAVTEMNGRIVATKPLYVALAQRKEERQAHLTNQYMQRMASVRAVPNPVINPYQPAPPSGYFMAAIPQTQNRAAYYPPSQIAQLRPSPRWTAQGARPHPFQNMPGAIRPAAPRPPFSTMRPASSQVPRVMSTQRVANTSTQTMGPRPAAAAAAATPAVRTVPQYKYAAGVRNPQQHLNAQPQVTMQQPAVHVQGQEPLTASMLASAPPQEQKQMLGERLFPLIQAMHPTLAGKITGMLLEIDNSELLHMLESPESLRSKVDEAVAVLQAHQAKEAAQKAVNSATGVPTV

In the next assay the target is Genome polyprotein (dengue virus type 2, UniProt P29990). Description: Dengue-2 NS5 methyltransferase inhibitors, primary screen, biochemical, confirmation dose response (AID 588689). Type of assay: functional.
Sequence of Genome polyprotein (P29990 2492-3391 limits assumed): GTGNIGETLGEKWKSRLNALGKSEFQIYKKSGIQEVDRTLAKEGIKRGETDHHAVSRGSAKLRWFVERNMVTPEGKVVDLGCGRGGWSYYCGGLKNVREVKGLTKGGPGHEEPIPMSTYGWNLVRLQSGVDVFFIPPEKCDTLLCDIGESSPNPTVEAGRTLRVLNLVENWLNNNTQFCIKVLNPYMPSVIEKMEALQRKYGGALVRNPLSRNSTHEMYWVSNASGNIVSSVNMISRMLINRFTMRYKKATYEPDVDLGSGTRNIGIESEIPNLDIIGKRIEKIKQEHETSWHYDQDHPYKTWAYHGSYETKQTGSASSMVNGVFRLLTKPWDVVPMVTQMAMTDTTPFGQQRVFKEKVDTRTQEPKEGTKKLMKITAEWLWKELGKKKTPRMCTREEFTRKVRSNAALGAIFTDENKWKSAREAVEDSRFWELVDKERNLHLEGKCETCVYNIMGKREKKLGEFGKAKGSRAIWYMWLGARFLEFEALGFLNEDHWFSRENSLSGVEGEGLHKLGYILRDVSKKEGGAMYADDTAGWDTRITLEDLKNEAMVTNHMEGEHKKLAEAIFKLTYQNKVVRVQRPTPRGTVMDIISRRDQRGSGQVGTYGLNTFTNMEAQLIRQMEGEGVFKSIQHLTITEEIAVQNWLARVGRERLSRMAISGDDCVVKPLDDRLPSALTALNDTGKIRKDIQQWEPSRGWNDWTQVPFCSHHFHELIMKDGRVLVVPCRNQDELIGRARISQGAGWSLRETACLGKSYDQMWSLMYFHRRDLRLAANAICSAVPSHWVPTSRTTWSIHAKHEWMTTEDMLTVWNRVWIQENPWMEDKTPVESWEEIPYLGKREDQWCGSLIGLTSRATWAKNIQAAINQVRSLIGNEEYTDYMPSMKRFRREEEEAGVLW
Assay [3] deals with T3, Replicative DNA helicase DnaB (Mycobacterium tuberculosis, UniProt P9WMR3).
T3 sequence (P9WMR3 whole entry): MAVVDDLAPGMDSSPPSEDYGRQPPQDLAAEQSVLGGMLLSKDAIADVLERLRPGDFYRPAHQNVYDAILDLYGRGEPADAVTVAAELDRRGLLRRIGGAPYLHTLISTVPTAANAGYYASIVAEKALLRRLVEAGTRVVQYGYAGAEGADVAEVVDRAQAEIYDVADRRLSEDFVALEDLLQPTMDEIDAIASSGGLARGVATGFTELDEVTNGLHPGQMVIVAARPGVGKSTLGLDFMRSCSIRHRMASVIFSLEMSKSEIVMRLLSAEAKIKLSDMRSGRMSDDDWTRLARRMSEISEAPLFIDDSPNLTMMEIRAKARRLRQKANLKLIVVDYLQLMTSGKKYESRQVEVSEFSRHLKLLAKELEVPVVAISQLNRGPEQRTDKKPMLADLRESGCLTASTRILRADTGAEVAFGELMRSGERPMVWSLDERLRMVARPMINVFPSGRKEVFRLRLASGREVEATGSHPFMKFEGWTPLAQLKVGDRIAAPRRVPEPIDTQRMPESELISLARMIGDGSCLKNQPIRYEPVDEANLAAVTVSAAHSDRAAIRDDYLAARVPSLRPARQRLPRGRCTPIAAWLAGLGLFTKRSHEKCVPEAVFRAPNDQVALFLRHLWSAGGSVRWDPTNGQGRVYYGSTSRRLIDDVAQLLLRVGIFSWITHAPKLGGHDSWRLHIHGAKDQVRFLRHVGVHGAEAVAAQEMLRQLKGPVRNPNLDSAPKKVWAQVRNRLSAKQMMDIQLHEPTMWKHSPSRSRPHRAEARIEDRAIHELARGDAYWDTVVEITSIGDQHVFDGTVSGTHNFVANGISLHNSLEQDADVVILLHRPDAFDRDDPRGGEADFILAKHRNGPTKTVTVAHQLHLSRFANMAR
The assay can be described thus: DnaB intein splicing inhibitors, dose response, biochemical, cell-free fluorescence (AID 449749). The format is functional.

The target of assay [4] is T4, Tyrosyl-DNA phosphodiesterase 2 (Homo sapiens, UniProt O95551).
T4 sequence (O95551 whole entry): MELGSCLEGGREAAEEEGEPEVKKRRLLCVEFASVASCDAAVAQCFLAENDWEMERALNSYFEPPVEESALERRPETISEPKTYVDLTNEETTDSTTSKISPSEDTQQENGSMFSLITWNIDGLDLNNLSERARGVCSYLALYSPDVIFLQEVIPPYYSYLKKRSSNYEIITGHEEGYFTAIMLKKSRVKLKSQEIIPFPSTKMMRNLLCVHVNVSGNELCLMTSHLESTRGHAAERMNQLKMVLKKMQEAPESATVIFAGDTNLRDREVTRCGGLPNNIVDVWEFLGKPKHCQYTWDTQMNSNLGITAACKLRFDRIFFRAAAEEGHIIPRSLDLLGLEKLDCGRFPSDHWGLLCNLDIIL
The assay can be described thus: human TDP2 enzyme inhibitors, dose response, biochemical, epi absorbance, IC50 (AID 743297).

Assay [5] concerns the target T2, Polyadenylate-binding protein 1. Description: PABP1 MLLE–PAM2 binding inhibitor potency, dose response, biochemical, fluorescence polarization, FITC-PAM2 peptide (AID 602259). Type of assay: functional. The following applies: read-out: IC50_Mean.
A short description of assay [6]: inhibitors of PGC1a acetylation in cells, dose response, cell-based, cherry-picked samples (AID 720514).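 Also: potency may reflect raised or lowered acetylation signal.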 The format is functional.
Assay [7] in a line: cytotoxicity toward HT-29 cells – cell-based, CellTiter-Glo luminescence, IC50, dose response (AID 1117330). The format is functional. A general note: ATP-based viability assays read luminescence as a measure of living cells.
Assay [8] is described as follows: CellTiter-Glo luminescent dose response of DLD-1 viability loss (AID 1117352). The format is functional.
Assay [9] can be described thus: cytotoxicity toward HCT116 cells – cell-based, CellTiter-Glo luminescence, IC50, dose response (AID 1117332). Type of assay: functional. Conditions: HCT-116.
A short description of assay [10]: Concentration-dependent survival of SW480 colon cancer line, luminescence detection with CellTiter-Glo, half-maximal inhibitory concentration (AID 1117338). The format is functional.
Assay [11] in a line: RKO cell viability reduction, dose response, CellTiter-Glo luminescence (AID 1117322). The format is functional.
Assay [12] is described as follows: SNU-C1 cell viability reduction, dose response, CellTiter-Glo luminescence (AID 1117323). The format is functional, cell-based.
Assay [13] is described as follows: cytotoxicity toward Colo320 cells – cell-based, CellTiter-Glo luminescence, IC50, dose response (AID 1117334). The following applies: COLO 320. The format is functional.

Turning to `C[C@@H]1CN([C@@H](C)CO)C(=O)Cc2cc(NC(=O)NC3CCCCC3)ccc2O[C@@H]1CN(C)Cc1ccc(-c2ccccc2)cc1`, the half-maximal activity concentration (AC50) was 30.6 µM (active) at Paired box protein Pax-8 and 0.296 µM (active) in [1].
`Cc1[nH]n(-c2ccccc2)c(=O)c1C(c1ccc(C(=O)O)cc1)c1c(C)[nH]n(-c2ccccc2)c1=O`: at Protein RecA, the EC50 was 0.656 µM (active). In addition, the IC50 in assay [2] is > 66 µM (inactive); at Genome polyprotein, 20.9 µM (active); in assay [4], > 0.528 µM (active); in assay [5] it was > 66 µM (inactive). In addition, in assay [3], the AC50 was 0.915 µM (active).
For `O=C(Nc1cccc(F)c1)N1CC(=O)N2[C@@H](CO)[C@@H](c3ccc(C#Cc4cccnc4)cc3)[C@@H]2C1`, the AC50 in assay [6] was 4.54 µM (active).
On to `O=C(O)c1ccccc1S` [THIOSALICYLIC ACID], for which the IC50 in assay [7], in assay [8], in assay [9], in assay [10], in assay [11] and in assay [12] was > 20 µM (inactive) in each case. Also, the IC50 in [13] is > 20 µM (inactive).
